Assay results published in paper PMC11562385 (RSC Chemical Biology, 2024).
Peptide text beside a SMILES is read from it.

Experiment: Variable-temperature CD melting curves (CD-melts at 228±2 nm and 202±2 nm), individual and global two-state fits
Format: physicochemical
Outline: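 Far-UV CD melts (0 to 95 °C) at 15-120 µM peptide in 15 mM phosphate buffer, concentration set by Trp/Tyr absorbance at 280 nm; CD-exciton intensity taken as %-folding probe. Melting curves fitted individually and globally to a two-state model.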

[1] = xlsx sheet of the peptide, individual fit of CD-melt

Compound: CSCC[C@H](NC(=O)[C@H](CC(=O)O)NC(=O)[C@H](Cc1ccccc1)NC(=O)[C@H](CCCNC(=N)N)NC(=O)[C@H](Cc1ccc(O)cc1)NC(=O)[C@H](CC(=O)O)NC(=O)[C@H](CCCNC(=N)N)NC(=O)[C@H](CCCNC(=N)N)NC(=O)[C@H](C)NC(=O)[C@@H](NC(=O)[C@H](Cc1c[nH]c2ccccc12)NC(=O)[C@@H](N)CCCNC(=N)N)C(C)C)C(=O)NCC(=O)N[C@@H](Cc1ccccc1)C(=O)N[C@@H](CC(=O)O)C(=O)N[C@@H](Cc1ccc(O)cc1)C(=O)N[C@@H](Cc1c[nH]c2ccccc12)C(=O)N[C@H](C(=O)N[C@@H](Cc1c[nH]c2ccccc12)C(=O)N[C@@H](CCC(=O)O)C(=O)O)C(C)C [2c] (H-RWVARRDYRFDMGFDYWVWE-OH)
- ΔGF0 (CD-melt at 228±2 nm, individual two-state Gibbs-Helmholtz fit (Origin 9.0), 0-95 °C, phosphate buffer 15 mM pH 6.5 ± MeOH): -5.27 ± 0.042 kJ/mol
- Hairpin %-fold 291K (Table S5, individual fit, 291 K): 93 ± 1%
- Hairpin %-fold 310K (Table S5, individual fit, 310 K): 77 ± 1%
- -TΔSF0 (as E16): 51.9 ± 0.84 kJ/mol
- ΔCpF0 (as E16): -29 ± 7 cal.deg-1.mol-1
- ΔHF0 (as E16): -56.9 ± 0.84 kJ/mol
- VT-CD %-fold (folded fraction (χF) at 25 °C from CD-melts, (R) regular / (B) bulged fold, phosphate buffer 15 mM pH 6.5, up to 20% MeOH): 93% (B)
- Tm 228 nm Glob. (global fit (shared maximum molar ellipticity), 228 nm): 48.0 oC
- Tm 202 nm Glob. (global fit, 202 nm): 67.5 oC
- χF (291 K) 202 nm Glob. (global fit, 202 nm, 291 K): 97%
- χF (291 K) 228 nm Glob. (global fit, 228 nm, 291 K): 63%
- χF (291 K) 202 nm Indiv. (individual fit, 202 nm, 291 K): 73%
- χF (291 K) 228 nm Indiv. (individual fit, 228 nm, 291 K): 56%
- Tm 228 nm Indiv. (individual fit, exciton band 228 nm): 36.7 oC
- Tm 202 nm Indiv. (individual fit, β-bulge band 202 nm): 62.2 oC
- VT-CD Tm (°C) (melting temperature from CD-melts, phosphate buffer 15 mM pH 6.5, up to 20% MeOH): 54 °C
- DHm, fitted value from OriginPro [1]: -60.6492 kJ/mol
- Tm, fitted value from OriginPro [1]: 327.29 K
